Data: the supplement of paper PMC10627819

Assays:
Experiment in all cases: Bliss interaction score (quartile over a dose matrix) (fitness difference); higher = more antagonism (negative = synergy)
B. subtilis 168 = tested on: B. subtilis 168
Summary of the method: (§1)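 Growth in each well was taken as OD595 at entry into stationary phase. Dividing by the plate's robust no-drug mean and capping at 1 gave fitness, and single-drug fitness was inferred from the combination data. The Bliss score, observed minus product-expected fitness, is summarised by quartiles over technical, biological and donor/recipient replicates.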

S. aureus DSM 20231 = tested on: S. aureus DSM 20231
Summary of the method: as §1

S. aureus Newman = tested on: S. aureus Newman
Summary of the method: as §1

S. pneumoniae D39V = tested on: S. pneumoniae D39V
Summary of the method: as §1
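Also: first quartile when negative (synergy) and third quartile when positive (antagonism).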

Compound	Bliss interaction score (B. subtilis 168)	Bliss interaction score (S. aureus DSM 20231)	Bliss interaction score (S. aureus Newman)	Bliss interaction score (S. pneumoniae D39V)	Bliss interaction score (B. subtilis 168; main component drawn)	Bliss interaction score (S. aureus DSM 20231; main component drawn)	Bliss interaction score (S. aureus Newman; main component drawn)	Bliss interaction score (S. pneumoniae D39V; main component drawn)
CC[C@H]1OC(=O)[C@H](C)[C@@H](O[C@H]2C[C@@](C)(OC)[C@@H](O)[C@H](C)O2)[C@H](C)[C@@H](O[C@@H]2O[C@H](C)C[C@H](N(C)C)[C@H]2O)[C@](C)(OC)C[C@@H](C)C(=O)[C@H](C)[C@@H](O)[C@]1(C)O [Clarithromycin] + CC[C@H]1OC(=O)[C@H](C)C(=O)[C@H](C)[C@@H](O[C@@H]2O[C@H](C)C[C@H](N(C)C)[C@H]2O)[C@](C)(OC)C[C@@H](C)C(=O)[C@H](C)[C@H]2N(CCCCn3cnc(-c4cccnc4)c3)C(=O)O[C@]12C [Telithromycin]	0.0309	-0.0599	-0.0507	0.056	–	–	–	–
CC[C@H]1OC(=O)[C@H](C)[C@@H](O[C@H]2C[C@@](C)(OC)[C@@H](O)[C@H](C)O2)[C@H](C)[C@@H](O[C@@H]2O[C@H](C)C[C@H](N(C)C)[C@H]2O)[C@](C)(OC)C[C@@H](C)C(=O)[C@H](C)[C@@H](O)[C@]1(C)O [Clarithromycin] + CC[C@H]1OC(=O)[C@H](C)[C@@H](O[C@H]2C[C@@](C)(OC)[C@@H](O)[C@H](C)O2)[C@H](C)[C@@H](O[C@@H]2O[C@H](C)C[C@H](N(C)C)[C@H]2O)[C@](C)(O)C[C@@H](C)C(=O)[C@H](C)[C@@H](O)[C@]1(C)O [Erythromycin]	-0.0372	0.0159	-0.0296	0.0551	–	–	–	–
CC[C@H]1OC(=O)[C@H](C)[C@@H](O[C@H]2C[C@@](C)(OC)[C@@H](O)[C@H](C)O2)[C@H](C)[C@@H](O[C@@H]2O[C@H](C)C[C@H](N(C)C)[C@H]2O)[C@](C)(OC)C[C@@H](C)C(=O)[C@H](C)[C@@H](O)[C@]1(C)O [Clarithromycin] + CN(C)[C@@H]1C(O)=C(C(N)=O)C(=O)[C@@]2(O)C(O)=C3C(=O)c4c(O)ccc(Cl)c4[C@@](C)(O)[C@H]3C[C@@H]12 [Clortetracycline]	-0.392	-0.28	-0.094	0.0391	–	–	–	–
CC[C@H]1OC(=O)[C@H](C)[C@@H](O[C@H]2C[C@@](C)(OC)[C@@H](O)[C@H](C)O2)[C@H](C)[C@@H](O[C@@H]2O[C@H](C)C[C@H](N(C)C)[C@H]2O)[C@](C)(OC)C[C@@H](C)C(=O)[C@H](C)[C@@H](O)[C@]1(C)O [Clarithromycin] + CN[C@H](CC(C)C)C(=O)N[C@H]1C(=O)N[C@@H](CC(N)=O)C(=O)N[C@H]2C(=O)N[C@H]3C(=O)N[C@H](C(=O)N[C@H](C(=O)O)c4cc(O)cc(O)c4-c4cc3ccc4O)[C@H](O[C@H]3C[C@](C)(N)[C@@H](O)[C@H](C)O3)c3ccc(c(Cl)c3)Oc3cc2cc(c3O[C@@H]2O[C@H](CO)[C@@H](O)[C@H](O)[C@H]2O[C@H]2C[C@](C)(NCc3ccc(-c4ccc(Cl)cc4)cc3)[C@@H](O)[C@H](C)O2)Oc2ccc(cc2Cl)[C@H]1O [Oritavancin]	0.0293	-0.0389	-0.0471	0.0635	–	–	–	–
CC[C@H]1OC(=O)[C@H](C)[C@@H](O[C@H]2C[C@@](C)(OC)[C@@H](O)[C@H](C)O2)[C@H](C)[C@@H](O[C@@H]2O[C@H](C)C[C@H](N(C)C)[C@H]2O)[C@](C)(OC)C[C@@H](C)C(=O)[C@H](C)[C@@H](O)[C@]1(C)O [Clarithromycin] + CO[C@@H]1[C@@H](OC(N)=O)[C@@H](O)[C@H](Oc2ccc3c(O)c(NC(=O)c4ccc(O)c(CC=C(C)C)c4)c(=O)oc3c2C)OC1(C)C [Novobiocin]	0.125	-0.0522	0.0643	-0.0569	–	–	–	–
CC[C@H]1OC(=O)[C@H](C)[C@@H](O[C@H]2C[C@@](C)(OC)[C@@H](O)[C@H](C)O2)[C@H](C)[C@@H](O[C@@H]2O[C@H](C)C[C@H](N(C)C)[C@H]2O)[C@](C)(OC)C[C@@H](C)C(=O)[C@H](C)[C@@H](O)[C@]1(C)O [Clarithromycin] + CO[C@@]12[C@H](COC(N)=O)C3=C(C(=O)C(C)=C(N)C3=O)N1C[C@@H]1N[C@@H]12 [MitomycinC]	0.036	-0.0723	0.0537	-0.0527	–	–	–	–
CC[C@H]1OC(=O)[C@H](C)[C@@H](O[C@H]2C[C@@](C)(OC)[C@@H](O)[C@H](C)O2)[C@H](C)[C@@H](O[C@@H]2O[C@H](C)C[C@H](N(C)C)[C@H]2O)[C@](C)(OC)C[C@@H](C)C(=O)[C@H](C)[C@@H](O)[C@]1(C)O [Clarithromycin] + COc1cc(Cc2cnc(N)nc2N)cc(OC)c1OC [Trimethoprim]	-0.193	0.0723	0.0667	-0.0331	–	–	–	–
CC[C@H]1OC(=O)[C@H](C)[C@@H](O[C@H]2C[C@@](C)(OC)[C@@H](O)[C@H](C)O2)[C@H](C)[C@@H](O[C@@H]2O[C@H](C)C[C@H](N(C)C)[C@H]2O)[C@](C)(OC)C[C@@H](C)C(=O)[C@H](C)[C@@H](O)[C@]1(C)O [Clarithromycin] + N[C@@H]1CONC1=O [CycloserineD]	0.077	-0.127	-0.0691	0.136	–	–	–	–
CC[C@H]1OC(=O)[C@H](C)[C@@H](O[C@H]2C[C@@](C)(OC)[C@@H](O)[C@H](C)O2)[C@H](C)[C@@H](O[C@@H]2O[C@H](C)C[C@H](N(C)C)[C@H]2O)[C@](C)(OC)C[C@@H](C)C(=O)[C@H](C)[C@@H](O)[C@]1(C)O [Clarithromycin] + O=C(O)[C@H]1/C(=C/CO)O[C@@H]2CC(=O)N21 [Clavulanic]	0.047	-0.212	0.277	-0.059	–	–	–	–
CC[C@H]1OC(=O)[C@H](C)[C@@H](O[C@H]2C[C@@](C)(OC)[C@@H](O)[C@H](C)O2)[C@H](C)[C@@H](O[C@@H]2O[C@H](C)C[C@H](N(C)C)[C@H]2O)[C@](C)(OC)C[C@@H](C)C(=O)[C@H](C)[C@@H](O)[C@]1(C)O [Clarithromycin] + Oc1cc(Cl)ccc1Oc1ccc(Cl)cc1Cl [Triclosan]	0.0259	-0.0868	0.032	0.0396	–	–	–	–
CCC[C@@H]1C[C@@H](C(=O)N[C@@H]([C@H]2O[C@H](SC)[C@H](O)[C@@H](O)[C@H]2O)[C@H](C)Cl)N(C)C1 [Clindamycin] + CC1(C)S[C@@H]2[C@H](NC(=O)Cc3ccccc3)C(=O)N2[C@H]1C(=O)O [PenicillinG]	0.0383	0.0609	-0.0587	0.0611	–	–	–	–
CCC[C@@H]1C[C@@H](C(=O)N[C@@H]([C@H]2O[C@H](SC)[C@H](O)[C@@H](O)[C@H]2O)[C@H](C)Cl)N(C)C1 [Clindamycin] + CC(=O)O[C@H]1C[C@@]2(C)[C@@H](C[C@@H](O)[C@H]3[C@@]4(C)CC[C@@H](O)[C@@H](C)[C@@H]4CC[C@@]32C)/C1=C(\CCC=C(C)C)C(=O)O [Fusidic acid]	0.0418	0.0254	0.0307	0.0662	–	–	–	–
CCC[C@@H]1C[C@@H](C(=O)N[C@@H]([C@H]2O[C@H](SC)[C@H](O)[C@@H](O)[C@H]2O)[C@H](C)Cl)N(C)C1 [Clindamycin] + CC[C@H]1OC(=O)[C@H](C)C(=O)[C@H](C)[C@@H](O[C@@H]2O[C@H](C)C[C@H](N(C)C)[C@H]2O)[C@](C)(OC)C[C@@H](C)C(=O)[C@H](C)[C@H]2N(CCCCn3cnc(-c4cccnc4)c3)C(=O)O[C@]12C [Telithromycin]	0.0609	0.0256	-0.0812	0.106	–	–	–	–
CCC[C@@H]1C[C@@H](C(=O)N[C@@H]([C@H]2O[C@H](SC)[C@H](O)[C@@H](O)[C@H]2O)[C@H](C)Cl)N(C)C1 [Clindamycin] + CC[C@H]1OC(=O)[C@H](C)[C@@H](O[C@H]2C[C@@](C)(OC)[C@@H](O)[C@H](C)O2)[C@H](C)[C@@H](O[C@@H]2O[C@H](C)C[C@H](N(C)C)[C@H]2O)[C@](C)(O)C[C@@H](C)C(=O)[C@H](C)[C@@H](O)[C@]1(C)O [Erythromycin]	0.0748	-0.0244	-0.0542	0.123	–	–	–	–
CCC[C@@H]1C[C@@H](C(=O)N[C@@H]([C@H]2O[C@H](SC)[C@H](O)[C@@H](O)[C@H]2O)[C@H](C)Cl)N(C)C1 [Clindamycin] + CN(C)[C@@H]1C(O)=C(C(N)=O)C(=O)[C@@]2(O)C(O)=C3C(=O)c4c(O)ccc(Cl)c4[C@@](C)(O)[C@H]3C[C@@H]12 [Clortetracycline]	-0.212	-0.0617	-0.191	-0.0954	–	–	–	–
CCC[C@@H]1C[C@@H](C(=O)N[C@@H]([C@H]2O[C@H](SC)[C@H](O)[C@@H](O)[C@H]2O)[C@H](C)Cl)N(C)C1 [Clindamycin] + CN[C@H](CC(C)C)C(=O)N[C@H]1C(=O)N[C@@H](CC(N)=O)C(=O)N[C@H]2C(=O)N[C@H]3C(=O)N[C@H](C(=O)N[C@H](C(=O)O)c4cc(O)cc(O)c4-c4cc3ccc4O)[C@H](O[C@H]3C[C@](C)(N)[C@@H](O)[C@H](C)O3)c3ccc(c(Cl)c3)Oc3cc2cc(c3O[C@@H]2O[C@H](CO)[C@@H](O)[C@H](O)[C@H]2O[C@H]2C[C@](C)(NCc3ccc(-c4ccc(Cl)cc4)cc3)[C@@H](O)[C@H](C)O2)Oc2ccc(cc2Cl)[C@H]1O [Oritavancin]	0.0359	0.0257	0.0703	0.0382	–	–	–	–
CCC[C@@H]1C[C@@H](C(=O)N[C@@H]([C@H]2O[C@H](SC)[C@H](O)[C@@H](O)[C@H]2O)[C@H](C)Cl)N(C)C1 [Clindamycin] + CO[C@@]12[C@H](COC(N)=O)C3=C(C(=O)C(C)=C(N)C3=O)N1C[C@@H]1N[C@@H]12 [MitomycinC]	0.0747	-0.0349	0.0745	0.0747	–	–	–	–
CCC[C@@H]1C[C@@H](C(=O)N[C@@H]([C@H]2O[C@H](SC)[C@H](O)[C@@H](O)[C@H]2O)[C@H](C)Cl)N(C)C1 [Clindamycin] + N[C@@H]1CONC1=O [CycloserineD]	0.0351	-0.101	0.0633	0.165	–	–	–	–
CCC[C@@H]1C[C@@H](C(=O)N[C@@H]([C@H]2O[C@H](SC)[C@H](O)[C@@H](O)[C@H]2O)[C@H](C)Cl)N(C)C1 [Clindamycin] + Oc1cc(Cl)ccc1Oc1ccc(Cl)cc1Cl [Triclosan]	0.065	-0.0305	0.0225	-0.101	–	–	–	–
N[C@@H]1CONC1=O [CycloserineD] + C/C(=C\C(=O)OCCCCCCCCC(=O)O)C[C@@H]1OC[C@H](C[C@@H]2O[C@H]2[C@@H](C)[C@H](C)O)[C@@H](O)[C@H]1O [Pseudomonic acid]	-0.0491	0.009	-0.0141	0.136	–	–	–	–
N[C@@H]1CONC1=O [CycloserineD] + CC1(C)S[C@@H]2[C@H](NC(=O)Cc3ccccc3)C(=O)N2[C@H]1C(=O)O [PenicillinG]	0.116	-0.0754	0.0553	-0.221	–	–	–	–
N[C@@H]1CONC1=O [CycloserineD] + CC1=C\[C@@H](O)CC(=O)Cc2nc(co2)C(=O)N2CCC=C2C(=O)O[C@H](C(C)C)[C@H](C)/C=C/C(=O)NC\C=C\1 [Virginiamycin M1]	-0.0364	0.101	0.0587	-0.0528	–	–	–	–
N[C@@H]1CONC1=O [CycloserineD] + CC(=O)NC[C@H]1CN(c2ccc(N3CCOCC3)c(F)c2)C(=O)O1 [Linezolid]	-0.0639	-0.125	0.06	0.146	–	–	–	–
N[C@@H]1CONC1=O [CycloserineD] + CC(=O)O[C@H]1C[C@@]2(C)[C@@H](C[C@@H](O)[C@H]3[C@@]4(C)CC[C@@H](O)[C@@H](C)[C@@H]4CC[C@@]32C)/C1=C(\CCC=C(C)C)C(=O)O [Fusidic acid]	0.0616	0.0576	-0.0418	0.211	–	–	–	–
N[C@@H]1CONC1=O [CycloserineD] + CC(C1CCC(C(O1)OC2C(CC(C(C2O)OC3C(C(C(CO3)(C)O)NC)O)N)N)N)NC [Gentamicin]	–	–	–	–	-0.0482	-0.125	0.0356	-0.0744
